# Test results from US20150105252A1, “SUBSTITUTED PYRAZOLES AS HERBICIDES” (E I DU PONT DE NEMOURS AND COMPANY, priority 2013, published 2015).
# Legend:
# [1] = system: barnyardgrass; experiment: Test A preemergence; type: in vivo, Echinochloa crus-galli; details: preemergence; for Barnyardgrass plant response rating (0 to 100 scale, 0 is no effect, 100 is complete control): 125 g ai/ha, visual injury approx. 10 days after treatment; for Barnyardgrass plant response rating: 500 g ai/ha, visual injury after approx. 10 days, 0 to 100 scale (0 no effect, 100 complete control)
# Procedure, shortened: (§1)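 Injury readout: eye-scored versus untreated controls, 0 to 100. Exposure period: ~10 days, greenhouse. Application: soil-directed spray over sown seed (pre) or spray on seedlings 2–10 cm tall with one or two leaves (post), compound carried in non-phytotoxic solvent including surfactant.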
# [2] = system: crabgrass, large; experiment: Test A preemergence; type: in vivo, Digitaria sanguinalis; details: preemergence; for Crabgrass, Large plant response rating (0 to 100 scale): 125 g ai/ha, visual injury approx. 10 days after treatment; for Crabgrass, Large plant response rating: 500 g ai/ha, visual injury after approx. 10 days, 0 to 100 scale (0 no effect, 100 complete control)
# Procedure, shortened: as §1
# [3] = system: foxtail, giant; experiment: Test A preemergence; type: in vivo, Setaria faberii; details: preemergence; for Foxtail, Giant plant response rating (0 to 100 scale): 125 g ai/ha, visual injury approx. 10 days after treatment; for Foxtail, Giant plant response rating: 500 g ai/ha, visual injury after approx. 10 days, 0 to 100 scale (0 no effect, 100 complete control)
# Procedure, shortened: as §1
# [4] = system: morningglory; experiment: Test A preemergence; type: in vivo, Ipomoea spp.; details: preemergence; for Morningglory plant response rating (0 to 100 scale): 125 g ai/ha, visual injury approx. 10 days after treatment; for Morningglory plant response rating: 500 g ai/ha, visual injury after approx. 10 days, 0 to 100 scale (0 no effect, 100 complete control)
# Procedure, shortened: as §1
# [5] = system: pigweed; experiment: Test A preemergence; type: in vivo, Amaranthus retroflexus; details: preemergence; for Pigweed plant response rating (0 to 100 scale): 125 g ai/ha, visual injury approx. 10 days after treatment; for Pigweed plant response rating: 500 g ai/ha, visual injury after approx. 10 days, 0 to 100 scale (0 no effect, 100 complete control)
# Procedure, shortened: as §1
# [6] = system: velvetleaf; experiment: Test A preemergence; type: in vivo, Abutilon theophrasti; details: preemergence; for Velvetleaf plant response rating (0 to 100 scale): 125 g ai/ha, visual injury approx. 10 days after treatment; for Velvetleaf plant response rating: 500 g ai/ha, visual injury after approx. 10 days, 0 to 100 scale (0 no effect, 100 complete control)
# Procedure, shortened: as §1
# [7] = system: wheat; experiment: Test A preemergence; type: in vivo, Triticum aestivum; details: preemergence; for Wheat plant response rating (0 to 100 scale): 125 g ai/ha, visual injury approx. 10 days after treatment; for Wheat plant response rating: 500 g ai/ha, visual injury after approx. 10 days, 0 to 100 scale (0 no effect, 100 complete control)
# Procedure, shortened: as §1
# [8] = system: corn; experiment: Test A preemergence; type: in vivo, Zea mays; details: preemergence; for Corn plant response rating (0 to 100 scale): 125 g ai/ha, visual injury approx. 10 days after treatment; for Corn plant response rating: 500 g ai/ha, visual injury after approx. 10 days, 0 to 100 scale (0 no effect, 100 complete control)
# Procedure, shortened: as §1
# [9] = system: barnyardgrass; experiment: Test A postemergence; type: in vivo, Echinochloa crus-galli
# Procedure, shortened: as §1
# [10] = system: crabgrass, large; experiment: Test A postemergence; type: in vivo, Digitaria sanguinalis
# Procedure, shortened: as §1
# [11] = system: foxtail, giant; experiment: Test A postemergence; type: in vivo, Setaria faberii
# Procedure, shortened: as §1
# [12] = system: morningglory; experiment: Test A postemergence; type: in vivo, Ipomoea spp.; details: Postemergence
# Procedure, shortened: as §1
# [13] = system: pigweed; experiment: Test A postemergence; type: in vivo, Amaranthus retroflexus; details: Postemergence
# Procedure, shortened: as §1
# [14] = system: velvetleaf; experiment: Test A postemergence; type: in vivo, Abutilon theophrasti; details: Postemergence
# Procedure, shortened: as §1
# [15] = system: wheat; experiment: Test A postemergence; type: in vivo, Triticum aestivum; details: Postemergence
# Procedure, shortened: as §1
# [16] = system: corn; experiment: Test A postemergence; type: in vivo, Zea mays
# Procedure, shortened: as §1
# [17] = system: rice; experiment: Test B flood; type: in vivo, Oryza sativa; details: 250 g ai/ha, visual rating on 0 to 100 scale (0 no effect, 100 complete control), 13 to 15 days
# Procedure, shortened: (§2)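 Paddy-water application: seedlings at 2-leaf stage, flood depth 3 cm maintained for the test duration. Evaluation after 13–15 days in the greenhouse by eye relative to controls; 0–100 scale.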
# [18] = system: sedge, umbrella; experiment: Test B flood; type: in vivo, Cyperus difformis; details: 250 g ai/ha, visual rating on 0 to 100 scale (0 no effect, 100 complete control), 13 to 15 days
# Procedure, shortened: as §2
# [19] = system: ducksalad; experiment: Test B flood; type: in vivo, Heteranthera limosa; details: 250 g ai/ha, visual rating on 0 to 100 scale (0 no effect, 100 complete control), 13 to 15 days
# Procedure, shortened: as §2
# [20] = system: barnyardgrass; experiment: Test B flood; type: in vivo, Echinochloa crus-galli; details: 250 g ai/ha, visual rating on 0 to 100 scale (0 no effect, 100 complete control), 13 to 15 days
# Procedure, shortened: as §2
# [21] = Postemergence, 500 g ai/ha, 0 to 100 scale (0 no effect, 100 complete control)
# [22] = postemergence, 125 g ai/ha, about 10 days, visual rating on 0 to 100 scale (0 no effect, 100 complete control)
# [23] = 125 g ai/ha, 0 to 100 scale, 0 no effect, 100 complete control
# [24] = 500 g ai/ha, 0 to 100 scale (0 no effect, 100 complete control)
Structure (SMILES),"Barnyardgrass plant response rating (0 to 100 scale, 0 is no effect, 100 is complete control) [1]",Barnyardgrass plant response rating [1],"Crabgrass, Large plant response rating (0 to 100 scale) [2]","Crabgrass, Large plant response rating [2]","Foxtail, Giant plant response rating (0 to 100 scale) [3]","Foxtail, Giant plant response rating [3]",Morningglory plant response rating (0 to 100 scale) [4],Morningglory plant response rating [4],Pigweed plant response rating (0 to 100 scale) [5],Pigweed plant response rating [5],Velvetleaf plant response rating (0 to 100 scale) [6],Velvetleaf plant response rating [6],Wheat plant response rating (0 to 100 scale) [7],Wheat plant response rating [7],Corn plant response rating (0 to 100 scale) [8],Corn plant response rating [8],"Barnyardgrass plant response rating [9, 21]","Barnyardgrass plant response rating [9, 22]","Crabgrass, Large plant response rating [10, 21]","Crabgrass, Large plant response rating [10, 22]",further results
CCCNC(=O)c1cc(I)n(Cc2cccc(C(F)(F)F)c2)n1 [Compound 183],0,10,10,80,10,50,0,0,10,50,0,0,0,0,0,0,20,10,20,10,"Foxtail, Giant plant response rating [11, 21]: 20; Foxtail, Giant plant response rating [11, 22]: 10; Morningglory plant response rating [12, 23]: 10; Morningglory plant response rating [12, 24]: 90; Pigweed plant response rating [13, 23]: 90; Pigweed plant response rating [13, 24]: 80; Velvetleaf plant response rating [14, 23]: 10; Velvetleaf plant response rating [14, 24]: 40; Wheat plant response rating [15, 23]: 0; Wheat plant response rating [15, 24]: 0; Corn plant response rating [16, 21]: 10; Corn plant response rating [16, 22]: 0; Plant response rating, Rice [17]: 0; Plant response rating, Sedge, Umbrella [18]: 0; Plant response rating, Ducksalad [19]: 0; Plant response rating, Barnyardgrass [20]: 0"
CCCCc1cc(C(=O)NCCC)nn1Cc1ccnc(C(F)(F)F)c1 [Compound 190],0,60,80,100,20,90,0,30,100,100,0,20,0,0,0,0,60,10,70,20,"Foxtail, Giant plant response rating [11, 21]: 60; Foxtail, Giant plant response rating [11, 22]: 20; Morningglory plant response rating [12, 23]: 100; Morningglory plant response rating [12, 24]: 90; Pigweed plant response rating [13, 23]: 100; Pigweed plant response rating [13, 24]: 90; Velvetleaf plant response rating [14, 23]: 100; Velvetleaf plant response rating [14, 24]: 80; Wheat plant response rating [15, 23]: 80; Wheat plant response rating [15, 24]: 10; Corn plant response rating [16, 21]: 40; Corn plant response rating [16, 22]: 10; Plant response rating, Rice [17]: 0; Plant response rating, Sedge, Umbrella [18]: 45; Plant response rating, Ducksalad [19]: 0; Plant response rating, Barnyardgrass [20]: 0"
CCCNC(=O)c1cc(C)n(Cc2ccnc(C(F)(F)F)c2)n1 [Compound 191],20,100,100,100,100,100,90,100,100,100,10,100,0,70,10,60,100,70,90,80,"Foxtail, Giant plant response rating [11, 21]: 90; Foxtail, Giant plant response rating [11, 22]: 80; Morningglory plant response rating [12, 23]: 90; Morningglory plant response rating [12, 24]: 90; Pigweed plant response rating [13, 23]: 100; Pigweed plant response rating [13, 24]: 100; Velvetleaf plant response rating [14, 23]: 90; Velvetleaf plant response rating [14, 24]: 100; Wheat plant response rating [15, 23]: 80; Wheat plant response rating [15, 24]: 60; Corn plant response rating [16, 21]: 100; Corn plant response rating [16, 22]: 60; Plant response rating, Rice [17]: 0; Plant response rating, Sedge, Umbrella [18]: 55; Plant response rating, Ducksalad [19]: 80; Plant response rating, Barnyardgrass [20]: 0"
CCc1cc(C(=O)NN(C)C)nn1Cc1ccnc(C(F)(F)F)c1 [Compound 192],0,0,0,10,0,0,0,10,0,0,0,0,0,0,0,0,30,10,20,10,"Foxtail, Giant plant response rating [11, 21]: 30; Foxtail, Giant plant response rating [11, 22]: 10; Morningglory plant response rating [12, 23]: 30; Morningglory plant response rating [12, 24]: 90; Pigweed plant response rating [13, 23]: 80; Pigweed plant response rating [13, 24]: 90; Velvetleaf plant response rating [14, 23]: 50; Velvetleaf plant response rating [14, 24]: 80; Wheat plant response rating [15, 23]: 0; Wheat plant response rating [15, 24]: 10; Corn plant response rating [16, 21]: 50; Corn plant response rating [16, 22]: 20; Plant response rating, Rice [17]: 0; Plant response rating, Sedge, Umbrella [18]: 0; Plant response rating, Ducksalad [19]: 0; Plant response rating, Barnyardgrass [20]: 0"
